# Data as given in patent publication US12384771B2, “Pleuromutilin derivative containing thiazole-pyridine benzyl quaternary ammonium salt side chain and preparation method and use thereof” (SHAANXI UNIVERSITY OF SCIENCE AND TECHNOLOGY, priority 2022, dated 2025).
# Counter-ions that a name gives are not always drawn.
# Legend:
# [1] = test system: carbapenem-resistant Acinetobacter baumannii (CR-AB) 18-560; experiment: MIC, clinical drug-resistant bacteria; format: cell-based; conditions: CR-AB 18-560, read-out: Minimum inhibitory concentration against clinical drug-resistant bacteria
# Protocol: (§1) The minimum inhibitory concentration (MIC) of the pleuromutilin derivative containing thiazole-pyridine benzyl quaternary ammonium salt side chain was tested with moxifloxacin as a positive control (purchased from Shanghai Macklin Biochemical Technology Co., Ltd.) using a microbroth dilution method. At the same time, the pleuromutilin derivative containing thiazole-pyridine benzyl quaternary ammonium salt side chain of the invention was compared with the marketed pleuromutilin antibiotics, such as retapamulin (purchased from Nanjing Chemlin Chemical Industry Co., Ltd.), tiamulin (purchased from Shanghai Yuanye Bio-Technology Co., Ltd) and valnemulin (purchased from Shanghai Acmec Biochemical Co., Ltd), in order to screen out pleuromutilin derivatives with better activity.
# (§2) Clinical resistant bacteria include multidrug-resistant Pseudomonas aeruginosa (MDR-PA) 18-993, 18-756 and 18-126, multidrug-resistant Klebsiella pneumoniae (MDR-KP) 18-893, 18-754 and 18-1482, methicillin-resistant Staphylococcus aureus (MRSA) 18-171, 18-209 and 18-575, vancomycin-resistant Enterococcus faecalis (VRE) 18-94, 18-80 and 18-507, and carbapenem-resistant Acinetobacter baumannii (CR-AB) 18-184, 18-560 and 18-882, all the clinical drug-resistant strains were from Huashan Hospital, Fudan University.
# [2] = test system: multidrug-resistant Pseudomonas aeruginosa (MDR-PA) 18-756; experiment: MIC, clinical drug-resistant bacteria; format: cell-based; conditions: MDR-PA 18-756, read-out: Minimum inhibitory concentration against clinical drug-resistant bacteria
# Protocol: as §1, §2
# [3] = test system: carbapenem-resistant Acinetobacter baumannii (CR-AB) 18-184; experiment: MIC, clinical drug-resistant bacteria; format: cell-based; conditions: CR-AB 18-184, read-out: Minimum inhibitory concentration against clinical drug-resistant bacteria
# Protocol: as §1, §2
# [4] = test system: methicillin-resistant Staphylococcus aureus (MRSA) 18-171; experiment: MIC, clinical drug-resistant bacteria; format: cell-based; conditions: MRSA 18-171, read-out: Minimum inhibitory concentration against clinical drug-resistant bacteria
# Protocol: as §1, §2
# [5] = test system: vancomycin-resistant Enterococcus faecalis (VRE) 18-80; experiment: MIC, clinical drug-resistant bacteria; format: cell-based; conditions: VRE 18-80; read-out: Minimum inhibitory concentration against clinical drug-resistant bacteria
# Protocol: as §1, §2
# [6] = test system: multidrug-resistant Pseudomonas aeruginosa (MDR-PA) 18-126; experiment: MIC, clinical drug-resistant bacteria; format: cell-based; conditions: MDR-PA 18-126, read-out: Minimum inhibitory concentration against clinical drug-resistant bacteria
# Protocol: as §1, §2
# [7] = test system: multidrug-resistant Klebsiella pneumoniae (MDR-KP) 18-893; experiment: MIC, clinical drug-resistant bacteria; format: cell-based; conditions: MDR-KP 18-893, read-out: Minimum inhibitory concentration against clinical drug-resistant bacteria
# Protocol: as §1, §2
# [8] = test system: methicillin-resistant Staphylococcus aureus (MRSA) 18-575; experiment: MIC, clinical drug-resistant bacteria; format: cell-based; conditions: MRSA 18-575, read-out: Minimum inhibitory concentration against clinical drug-resistant bacteria
# Protocol: as §1, §2
# [9] = test system: multidrug-resistant Klebsiella pneumoniae (MDR-KP) 18-754; experiment: MIC, clinical drug-resistant bacteria; format: cell-based; conditions: MDR-KP 18-754, read-out: Minimum inhibitory concentration against clinical drug-resistant bacteria
# Protocol: as §1, §2
# [10] = test system: methicillin-resistant Staphylococcus aureus (MRSA) 18-209; experiment: MIC, clinical drug-resistant bacteria; format: cell-based; conditions: MRSA 18-209, read-out: Minimum inhibitory concentration against clinical drug-resistant bacteria
# Protocol: as §1, §2
# [11] = test system: multidrug-resistant Pseudomonas aeruginosa (MDR-PA) 18-993; experiment: MIC, clinical drug-resistant bacteria; format: cell-based; conditions: MDR-PA 18-993, read-out: Minimum inhibitory concentration against clinical drug-resistant bacteria
# Protocol: as §1, §2
# [12] = test system: carbapenem-resistant Acinetobacter baumannii (CR-AB) 18-882; experiment: MIC, clinical drug-resistant bacteria; format: cell-based; conditions: CR-AB 18-882, read-out: Minimum inhibitory concentration against clinical drug-resistant bacteria
# Protocol: as §1, §2
# [13] = test system: multidrug-resistant Klebsiella pneumoniae (MDR-KP) 18-1482; experiment: MIC, clinical drug-resistant bacteria; format: cell-based; conditions: MDR-KP 18-1482, read-out: Minimum inhibitory concentration against clinical drug-resistant bacteria
# Protocol: as §1, §2
# [14] = test system: vancomycin-resistant Enterococcus faecalis (VRE) 18-94; experiment: MIC, clinical drug-resistant bacteria; format: cell-based; conditions: VRE 18-94; read-out: Minimum inhibitory concentration against clinical drug-resistant bacteria
# Protocol: as §1, §2
# [15] = test system: vancomycin-resistant Enterococcus faecalis (VRE) 18-507; experiment: MIC, clinical drug-resistant bacteria; format: cell-based; conditions: VRE 18-507; read-out: Minimum inhibitory concentration against clinical drug-resistant bacteria
# Protocol: as §1, §2
# Salmonella ATCC 14028 = experiment: MIC, microbroth dilution, standard strains; format: cell-based; conditions: ATCC14028, ATCC 14028, read-out: Minimum inhibitory concentration
# Protocol: (§3) The minimum inhibitory concentration (MIC) of the pleuromutilin derivative containing thiazole-pyridine benzyl quaternary ammonium salt side chain was tested with moxifloxacin as a positive control (purchased from Shanghai Macklin Biochemical Technology Co., Ltd.) using a microbroth dilution method.
# (§4) Standard strains include gram-positive bacteria: Staphylococcus epidermidis ATCC 12228, Staphylococcus aureus ATCC 29213, ATCC 25923 and methicillin-resistant Staphylococcus aureus ATCC 33591; gram-negative bacteria: Salmonella ATCC 14028, Acinetobacter baumannii ATCC 19606, Escherichia coli ATCC 25922 and CMCC 44103, all the strains were purchased from the American Type Culture Collection.
# [16] = test system: Staphylococcus aureus ATCC 29213; experiment: MIC, microbroth dilution, standard strains; format: cell-based; conditions: ATCC29213, ATCC 29213, read-out: Minimum inhibitory concentration
# Protocol: as §3, §4
# [17] = test system: methicillin-resistant Staphylococcus aureus ATCC 33591; experiment: MIC, microbroth dilution, standard strains; format: cell-based; conditions: ATCC33591, ATCC 33591, read-out: Minimum inhibitory concentration
# Protocol: as §3, §4
# [18] = test system: Escherichia coli ATCC 25922; experiment: MIC, microbroth dilution, standard strains; format: cell-based; conditions: ATCC25922, ATCC 25922, read-out: Minimum inhibitory concentration
# Protocol: as §3, §4
# [19] = test system: Escherichia coli CMCC 44103; experiment: MIC, microbroth dilution, standard strains; format: cell-based; conditions: CMCC44103, CMCC 44103, read-out: Minimum inhibitory concentration
# Protocol: as §3, §4
# [20] = test system: Staphylococcus aureus ATCC 25923; experiment: MIC, microbroth dilution, standard strains; format: cell-based; conditions: ATCC25923, ATCC 25923, read-out: Minimum inhibitory concentration
# Protocol: as §3, §4
# [21] = test system: Staphylococcus epidermidis ATCC 12228; experiment: MIC, microbroth dilution, standard strains; format: cell-based; conditions: ATCC12228, ATCC 12228, read-out: Minimum inhibitory concentration
# Protocol: as §3, §4
# [22] = test system: Acinetobacter baumannii ATCC 19606; experiment: MIC, microbroth dilution, standard strains; format: cell-based; conditions: ATCC19606, ATCC 19606, read-out: Minimum inhibitory concentration
# Protocol: as §3, §4
# physchem = conditions: thermodynamic from solid
# Protocol: Experimental method: representative compounds 2, 4 and 7 were selected for solubility determination, and retapamulin hydrochloride was used as a control. 1 mg of each sample was taken and quantitatively dissolved in a 10 mL volumetric flask, and the absorption peak area was measured by a high-performance liquid chromatography; then, the saturated solutions of the representative compounds 2, 4 and 7 and the control drug retapamulin were diluted 10-fold, and the absorption peak area was determined by HPLC; their respective solubility was obtained by calculating the absorption peak area.
# The experimental instrument was Shimadzu LC-16, the chromatographic column was Hypersil C18 ODS (4.6×250 mm×5 μm), the flow rate was 1.0 mL/min, the detection wavelength was 300 nm, and the mobile phase was 0.05 mol/L of aqueous acetic acid solution:acetonitrile=30:70.
# [23] = pH 1.5, simulated gastric fluid
Structure (SMILES),MIC [1] [µg/mL],MIC [2] [µg/mL],MIC [3] [µg/mL],MIC [4] [µg/mL],MIC [5] [µg/mL],MIC [6] [µg/mL],MIC [7] [µg/mL],MIC [8] [µg/mL],MIC [9] [µg/mL],MIC [10] [µg/mL],MIC [11] [µg/mL],MIC [12] [µg/mL],MIC [13] [µg/mL],MIC [14] [µg/mL],MIC [15] [µg/mL],MIC (Salmonella ATCC 14028) [µg/mL],MIC [16] [µg/mL],solubility (physchem; organic solvent or mixture) [µg/mL],solubility (physchem; [23]) [µg/mL],"solubility (physchem; pH 7, water) [µg/mL]",also measured
"C=C[C@]1(C)C[C@@H](OC(=O)CSc2nc(-c3cc[n+](Cc4ccc(OC)cc4)cc3)cs2)[C@]2(C)[C@H](C)CC[C@]3(CCC(=O)[C@H]32)[C@@H](C)[C@@H]1O [Compound 4, 1-(4-(methoxy)benzyl)-4-(2-(8-hydroxy-4,7,9,12-tetramethyl-3-oxo-7-vinyldecahydro-4,9a-propancyclopent[8]cyclen-5-yl)oxy)-2-oxoethyl)thiazol-4-yl)pyridyl bromide salt]",> 128,> 128,64,16,2,64,64,> 128,32,128,64,8,64,> 128,> 128,0.5,0.5,11900,3120,2320,MIC [17]: 1 µg/mL; MIC [18]: 0.5 µg/mL; MIC [19]: 1 µg/mL; MIC [20]: 0.5 µg/mL; MIC [21]: 1 µg/mL; MIC [22]: 2 µg/mL
"C=C[C@]1(C)C[C@@H](OC(=O)CSc2nc(-c3cc[n+](Cc4ccc(C)cc4)cc3)cs2)[C@]2(C)[C@H](C)CC[C@]3(CCC(=O)[C@H]32)[C@@H](C)[C@@H]1O [Compound 2, 1-(4-Methylbenzyl)-4-(2-((2-((8-hydroxy-4,7,9,12-tetramethyl-3-oxo-7-vinyldecahydro-4,9a-propancyclopent[8]cyclen-5-yl)oxy)-2-oxoethyl)thio)thiazol-4-yl)pyridyl bromide salt]",> 128,128,16,4,2,64,16,> 128,32,128,128,8,64,> 128,> 128,2,0.0625,13200,2760,2020,MIC [17]: 1 µg/mL; MIC [18]: 0.0625 µg/mL; MIC [19]: 0.5 µg/mL; MIC [20]: 0.0625 µg/mL; MIC [21]: 1 µg/mL; MIC [22]: 1 µg/mL
"C=C[C@]1(C)C[C@@H](OC(=O)CS[C@@H]2C[C@H]3CC[C@@H](C2)N3C)[C@]2(C)[C@H](C)CC[C@]3(CCC(=O)[C@H]32)[C@@H](C)[C@@H]1O [Retapamulin hydrochloride, retapamulin hydrochloride, reference compound]",–,–,–,–,–,–,–,–,–,–,–,–,–,–,–,–,–,1150,230,120,–
